# According to patent US20130244999A1, “Substituted Heterocyclic Compounds” (Incyte Corporation, priority 2008, published 2013):
# Biological target: T1, histamine H4 receptor (Homo sapiens, UniProt Q9H3N8)
# T1 construct: expressed in transfected cells; host or cells: HEK293SFM cells (membrane preparation)
# Assay: Inhibition of histamine H4 receptor (Table A1; H4 membrane binding assay)
# Settings: for IC50: histamine H4 receptor, "> a" = exceeds experiment limit
# Summary of the method: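 Membranes came from recombinant HEK293SFM cells expressing human H4, homogenized in 50 mM Tris-HCl pH 7.5 with protease inhibitors. Nonspecific binding was set with 1000× unlabeled ligand. Bound radioligand was separated on PEI-treated GF/B filters and counted by liquid scintillation.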
Structure (SMILES),IC50 [nM],inhibition at 1 µM [%]
"CC1Cc2ccc(-c3cnn(C4CCCC4)c3)cc2CN1c1cc(N2CCN(C)CC2)nc(N)n1 (single isomer, unassigned) [Example 115, 4-[7-(1-Cyclopentyl-1H-pyrazol-4-yl)-3-methyl-3,4-dihydroisoquinolin-2(1H)-yl]-6-(4-methylpiperazin-1-yl)pyrimidin-2-amine]",40,–
"CCC(=O)N1CCC(c2ccc3c(c2)CN(c2cc(N4CCN(C)CC4)nc(N)n2)C(C)C3)CC1 (stereo not shown) [Example 149, 4-(4-Methylpiperazin-1-yl)-6-[3-methyl-7-(1-propionylpiperidin-4-yl)-3,4-dihydroisoquinolin-2 (1H)-yl]pyrimidin-2-amine]",26.1,–
"CC1Cc2ccc(-c3cnn(CC4CCCC4)c3)cc2CN1c1cc(N2CCN(C)CC2)nc(N)n1 (single isomer, unassigned) [Example 109, 4-[7-[1-(Cyclopentylmethyl)-1H-pyrazol-4-yl]-3-methyl-3,4-dihydroisoquinolin-2(1H)-yl]-6-(4-methylpiperazin-1-yl)pyrimidin-2-amine]",100,–
"CCOC(=O)Nc1ccc2c(c1)CN(c1cc(N3CCN(C)CC3)nc(N)n1)CC2 [Example 34, Ethyl {2-[2-amino-6-(4-methylpiperazin-1-yl)pyrimidin-4-yl]-1,2,3,4-tetrahydroisoquinolin-7-yl}carbamate]",–,69
"CC1Cc2ccc(-c3ccnc(C(=O)N4CC(O)C4)c3)cc2CN1c1cc(N2CCN(C)CC2)nc(N)n1 (stereo not shown) [Example 153, 1-[(4-{2-[2-Amino-6-(4-methylpiperazin-1-yl)pyrimidin-4-yl]-3-methyl-1,2,3,4-tetrahydroisoquinolin-7-yl}pyridin-2-yl)carbonyl]azetidin-3-ol]",27,–
"CCNC(=O)c1cccc(-c2ccc3c(c2)CN(c2cc(N4CCN(C)CC4)nc(N)n2)C(C)C3)n1 (single isomer, unassigned) [Example 158, 6-{2-[2-Amino-6-(4-methylpiperazin-1-yl)pyrimidin-4-yl]-3-methyl-1,2,3,4-tetrahydroisoquinolin-7-yl}-N-ethylpyridine-2-carboxamide]",–,70
"CC1Cc2ccc(-c3ccc(C(=O)N4CC(O)C4)cn3)cc2CN1c1cc(N2CCN(C)CC2)nc(N)n1 (single isomer, unassigned) [Example 73, 1-[(6-{2-[2-Amino-6-(4-methylpiperazin-1-yl)pyrimidin-4-yl]-3-methyl-1,2,3,4-tetrahydroisoquinolin-7-yl}pyridin-3-yl)carbonyl]azetidin-3-ol]",195,–
"CCS(=O)(=O)N1CCC(c2ccc3c(c2)CN(c2cc(N4CCN(C)CC4)nc(N)n2)C(C)C3)CC1 (stereo not shown) [Example 152, 4-[7-[1-(Ethylsulfonyl)piperidin-4-yl]-3-methyl-3,4-dihydroisoquinolin-2(1H)-yl]-6-(4-methylpiperazin-1-yl)pyrimidin-2-amine]",17.6,–
"CC1Cc2ccc(-c3cncc(C(=O)N4CC(O)C4)c3)cc2CN1c1cc(N2CCN(C)CC2)nc(N)n1 (single isomer, unassigned) [Example 75, 1-[(5-{2-[2-Amino-6-(4-methylpiperazin-1-yl)pyrimidin-4-yl]-3-methyl-1,2,3,4-tetrahydroisoquinolin-7-yl}pyridin-3-yl)carbonyl]azetidin-3-ol]",100,–
"CC1Cc2ccc(-c3ccc(C(=O)N(C)CCN(C)C)nc3)cc2CN1c1cc(N2CCN(C)CC2)nc(N)n1 (single isomer, unassigned) [Example 52A, 5-{2-[2-amino-6-(4-methylpiperazin-1-yl)pyrimidin-4-yl]-3-methyl-1,2,3,4-tetrahydroisoquinolin-7-yl}-N-[2-(dimethylamino)ethyl]-N-methylpyridine-2-carboxoynide]",46,–
"CN1CCN(c2cc(N3CCc4ccc(Br)cc4C3)nc(N)n2)CC1 [Example 1, 4-(7-Bromo-3,4-dihydroisoquinolin-2(1H)-yl)-6-(4-methylpiperazin-1-yl)pyrimidin-2-amine]",39,–
"CNC(=O)c1csc(-c2ccc3c(c2)CN(c2cc(N4CCN(C)CC4)nc(N)n2)CC3)n1 [Example 47, 2-{2-[2-Amino-6-(4-methylpiperazin-1-yl)pyrimidin-4-yl]-1,2,3,4-tetrahydroisoquinolin-7-yl}-N-methyl-1,3-thiazole-4-carboxamide]",127,–
"CC1Cc2ccc(-c3ccnc(C(=O)N4CCC4)c3)cc2CN1c1cc(N2CCN(C)CC2)nc(N)n1 (single isomer, unassigned) [Example 62A, 4-[7-[2-(azetidin-1-ylcarbonyl)pyridin-4-yl]-3-methyl-3,4-dihydroisoquinolin-2 (1H)-yl]-6-(4-methylpiperazin-1-yl)pyrimidin-2-amine]",46,–
"CN1CCN(c2cc(N3CCc4cc(F)c(-c5cccc(C(=O)N(C)C)c5)cc4C3)nc(N)n2)CC1 [Example 128, 3-{2-[2-Amino-6-(4-methylpiperazin-1-yl)pyrimidin-4-yl]-6-fluoro-1,2,3,4-tetrahydroisoquinolin-7-yl}-N,N-dimethylbenzamide]",148,–
"CN1CCN(c2cc(N3CCc4ccc(-c5ccc(C(=O)NCc6ccccn6)nc5)cc4C3)nc(N)n2)CC1 [Example 18, 5-{2-[2-Amino-6-(4-methylpiperazin-1-yl)pyrimidin-4-yl]-1,2,3,4-tetrahydroisoquinolin-7-yl}-N-(pyridin-2-ylmethyl)pyridine-2-carboxamide]",65,–
"CC1Cc2ccc(-c3cc(C(=O)N4CCC(N(C)C)C4)n(C)c3)cc2CN1c1cc(N2CCN(C)CC2)nc(N)n1 (single isomer, unassigned) [Example 94, 4-[7-(5-{[3-(Dimethylamino)pyrrolidin-1-yl]carbonyl}-1-methyl-1H-pyrrol-3-yl)-3-methyl-3,4-dihydroisoquinolin-2(1H)-yl]-6-(4-methylpiperazin-1-yl)pyrimidin-2-amine]",30,–
"CNC(=O)c1ccc(-c2ccc3c(c2)CN(c2cc(N4CCN(C)CC4)nc(N)n2)C(C)C3)cc1C (stereo not shown) [Example 130, 4-{2-[2-Amino-6-(4-methylpiperazin-1-yl)pyrimidin-4-yl]-3-methyl-1,2,3,4-tetrahydroisoquinolin-7-yl}-N,2-dimethylbenzamide]",69,–
"CN1CCN(c2cc(N3CCc4ccc(N5CCC(c6ccncc6)CC5)cc4C3)nc(N)n2)CC1 [Example 38, 4-(4-Methylpiperazin-1-yl)-6-[7-(4-pyridin-4-ylpiperidin-1-yl)-3,4-dihydroisoquinolin-2(1H)-yl]pyrimidin-2-amine]",186,–
"CN1CCN(c2cc(N3CCc4ccc(C(=O)N5CCC(c6ccccc6)C5)cc4C3)nc(N)n2)CC1 (stereo not shown) [Example 24, 4-(4-Methylpiperazin-1-yl)-6-[7-[(3-phenylpyrrolidin-1-yl)carbonyl]-3,4-dihydroisoquinolin-2(1H)-yl]pyrimidin-2-amine]",966,–
"CC1Cc2ccc(-c3cnn(C4CCOC4)c3)cc2CN1c1cc(N2CCN(C)CC2)nc(N)n1 (single isomer, unassigned) [Example 108, 4-(4-Methylpiperazin-1-yl)-6-[3-methyl-7-[1-(tetrahydrofuran-3-yl)-1H-pyrazol-4-yl]-3,4-dihydroisoquinolin-2(1H)-yl]pyrimidin-2-amine]",46,–

# More lines, now with the values ahead:
IC50 [nM],inhibition at 1 µM [%],Structure (SMILES)
26,–,"CNC(=O)c1cc(-c2ccc3c(c2)CN(c2cc(N4CCN(C)CC4)nc(N)n2)C(C)C3)cn1C (single isomer, unassigned) [Example 87A, 4-{2-[2-Amino-6-(4-methylpiperazin-1-yl)pyrimidin-4-yl]-3-methyl-1,2,3,4-tetrahydroisoquinolin-7-yl}-N,1-dimethyl-1H-pyrrole-2-carboxamide]"
34,–,"CNC(=O)c1ccc(-c2ccc3c(c2)CN(c2cc(N4CCN(C)CC4)nc(N)n2)C(CO)C3)cn1 (single isomer, unassigned) [Example 81B, 5-[2-[2-amino-6-(4-methylpiperazin-1-yl)pyrimidin-4-yl]-3-(hydroxymethyl)-1,2,3,4-tetrahydroisoquinolin-7-yl]-N-methylpyridine-2-carboxamide]"
66,–,"CC(C)NC(=O)c1cc(-c2ccc3c(c2)CN(c2cc(N4CCN(C)CC4)nc(N)n2)C(C)C3)cn1C (single isomer, unassigned) [Example 90A, 4-{2-[2-Amino-6-(4-methylpiperazin-1-yl)pyrimidin-4-yl]-3-methyl-1,2,3,4-tetrahydroisoquinolin-7-yl}-N-isopropyl-1-methyl-1H-pyrrole-2-carboxamide]"
127,–,"CC1Cc2ccc(-c3cc(C(=O)N4CCC4)n(C)c3)cc2CN1c1cc(N2CCN(C)CC2)nc(N)n1 (single isomer, unassigned) [Example 92B, 4-[7-[5-(azetidin-1-ylcarbonyl)-1-methyl-1H-pyrrol-3-yl]-3-methyl-3,4-dihydroisoquinolin-2(1H)-yl]-6-(4-methylpiperazin-1-yl)pyrimidin-2-amine]"
30,–,"CC1Cc2ccc(-c3ccn(CCO)n3)cc2CN1c1cc(N2CCN(C)CC2)nc(N)n1 (single isomer, unassigned) [Example 84A, 2-(3-{2-[2-Amino-6-(4-methylpiperazin-1-yl)pyrimidin-4-yl]-3-methyl-1,2,3,4-tetrahydroisoquinolin-7-yl}-1H-pyrazol-1-yl)ethanol]"
26,–,"CC1Cc2ccc(-c3cc(C(=O)N(C)C)n(C)c3)cc2CN1c1cc(N2CCN(C)CC2)nc(N)n1 (single isomer, unassigned) [Example 89A, 4-{2-[2-Amino-6-(4-methylpiperazin-1-yl)pyrimidin-4-yl]-3-methyl-1,2,3,4-tetrahydroisoquinolin-7-yl}-N,1N,1-trimethyl-1H-pyrrole-2-carboxamide]"
355,–,"CC1Cc2ccc(-c3ccc(C(=O)N4CC[C@H](F)C4)nc3)cc2CN1c1cc(N2CCN(C)CC2)nc(N)n1 (single isomer, unassigned) [Example 154B]"
116,–,"CC1Cc2ccc(-c3ccnc(C(=O)N4CCCC4)c3)cc2CN1c1cc(N2CCN(C)CC2)nc(N)n1 (single isomer, unassigned) [Example 64A, 4-(4-methylpiperazin-1-yl)-6-[3-methyl-7-[2-(pyrrolidin-1-ylcarbonyl)pyridin-4-yl]-3,4-dihydroisoquinolin-2(1H)-yl]pyrimidin-2-amine]"
